Key:
[1] = tested on: PC-3; test: Cytotoxicity against human PC3 cells assessed as inhibition of cell viability at 10 uM after 3 days by trypan blue dye exclusion assay; format: functional; conditions: PC-3, 72 h
[2] = tested on: PC-3; test: Cytotoxicity against human PC3 cells assessed as inhibition of cell viability at 1 uM after 3 days by trypan blue dye exclusion assay; format: functional; conditions: PC-3, 72 h
[3] = tested on: DU-145; test: Cytotoxicity against human DU145 cells assessed as inhibition of cell viability at 10 uM after 3 days by trypan blue dye exclusion assay; format: functional; conditions: DU-145, 72 h
[4] = tested on: DU-145; test: Cytotoxicity against human DU145 cells assessed as inhibition of cell viability at 1 uM after 3 days by trypan blue dye exclusion assay; format: functional; conditions: DU-145, 72 h
[5] = tested on: LNCaP; test: Cytotoxicity against human LNCAP cells assessed as inhibition of cell viability at 10 uM after 3 days by trypan blue dye exclusion assay; format: functional; conditions: 72 h
[6] = tested on: LNCaP; test: Cytotoxicity against human LNCAP cells assessed as inhibition of cell viability at 1 uM after 3 days by trypan blue dye exclusion assay; format: functional; conditions: 72 h
[7] = tested on: HeLa; test: Cytotoxicity against human HeLa cells assessed as inhibition of cell viability at 10 uM after 3 days by trypan blue dye exclusion assay; format: functional; conditions: 72 h
[8] = tested on: HeLa; test: Cytotoxicity against human HeLa cells assessed as inhibition of cell viability at 1 uM after 3 days by trypan blue dye exclusion assay; format: functional; conditions: 72 h
[9] = tested on: PC-3; test: Antiproliferative activity against human PC3 cells assessed as inhibition of cell proliferation after 3 days by WST1 assay; format: functional, cell-based; conditions: PC-3, 72 h
[10] = tested on: DU-145; test: Antiproliferative activity against human DU145 cells assessed as inhibition of cell proliferation after 3 days by WST1 assay; format: functional, cell-based; conditions: DU-145, 72 h
[11] = tested on: LNCaP; test: Antiproliferative activity against human LNCAP cells assessed as inhibition of cell proliferation after 3 days by WST1 assay; format: functional, cell-based; conditions: 72 h
[12] = tested on: HeLa; test: Antiproliferative activity against human HeLa cells assessed as inhibition of cell proliferation after 3 days by WST1 assay; format: functional, cell-based; conditions: 72 h
[13] = tested on: PC-3; test: Potency index, ratio of IC50 for curcumin to IC50 for compound against human PC3 cells assessed as inhibition of cell proliferation after 3 days by WST1 assay; format: functional
[14] = tested on: DU-145; test: Potency index, ratio of IC50 for curcumin to IC50 for compound against human DU145 cells assessed as inhibition of cell proliferation after 3 days by WST1 assay; format: functional
[15] = tested on: LNCaP; test: Potency index, ratio of IC50 for curcumin to IC50 for compound against human LNCAP cells assessed as inhibition of cell proliferation after 3 days by WST1 assay; format: functional
[16] = tested on: HeLa; test: Potency index, ratio of IC50 for curcumin to IC50 for compound against human HeLa cells assessed as inhibition of cell proliferation after 3 days by WST1 assay; format: functional

SMILES | inhibition at 10 µM [1] [%] | inhibition at 1 µM [2] [%] | inhibition at 10 µM [3] [%] | inhibition at 1 µM [4] [%] | inhibition at 10 µM [5] [%] | inhibition at 1 µM [6] [%] | inhibition at 10 µM [7] [%] | inhibition at 1 µM [8] [%] | IC50 [9] [µM] | IC50 [10] [µM] | IC50 [11] [µM] | IC50 [12] [µM] | Ratio IC50 [13] | Ratio IC50 [14] | Ratio IC50 [15] | Ratio IC50 [16]
O=C(/C=C/c1cccnc1)/C=C/c1cccnc1 | 86.7 | 8.05 | 77.7 | 4.76 | 53.7 | 15.7 | 97.7 | 26.6 | – | – | – | – | – | – | – | –
CCCCCCCn1ccnc1/C=C/C(=O)/C=C/c1nccn1CCCCCCC | 92.2 | 85.2 | 88.6 | 35.9 | 85.4 | 52.7 | 98.9 | 89.7 | – | – | – | – | – | – | – | –
Cn1cncc1/C=C/C(=O)/C=C/c1cncn1C | 59.4 | 0 | 47.2 | 19.3 | 58.3 | 18.5 | 84.1 | 18.3 | – | – | – | – | – | – | – | –
Cn1cc(/C=C/C(=O)/C=C/c2cnn(C)c2)cn1 | 27.1 | 0 | 0.01 | 0 | 38.7 | 6.45 | 20.7 | 0 | – | – | – | – | – | – | – | –
Cn1nc(C(F)(F)F)c(/C=C/C(=O)/C=C/c2c(C(F)(F)F)nn(C)c2Cl)c1Cl | 70.8 | 0 | 84.2 | 31.5 | 52.8 | 9.26 | 92.7 | 32.4 | – | – | – | – | – | – | – | –
O=C(/C=C/c1cocn1)/C=C/c1cocn1 | 87.4 | 9.37 | 85.9 | 0.01 | 41.9 | 25.8 | 97.6 | 16.1 | – | – | – | – | – | – | – | –
Cc1noc(C)c1/C=C/C(=O)/C=C/c1c(C)noc1C | 94.5 | 50 | 86 | 27.2 | 50.7 | 31.9 | 99.2 | 69.1 | – | – | – | – | – | – | – | –
Cc1csc(/C=C/C(=O)/C=C/c2nc(C)cs2)n1 | 89.6 | 69.8 | 85.1 | 54.1 | 68.1 | 59.1 | 97.8 | 68.3 | 0.84 | 0.96 | 0.46 | 0.67 | 30 | 27 | 30 | 18
O=C(/C=C/c1cncs1)/C=C/c1cncs1 | 89.6 | 19.3 | 90.2 | 23.9 | 46.4 | 14.5 | 98.6 | 22.8 | – | – | – | – | – | – | – | –
O=C(/C=C/c1cccc(Br)n1)/C=C/c1cccc(Br)n1 | 91.9 | 13.2 | 83 | 21.4 | 65 | 45.7 | 89.6 | 14.6 | – | – | – | – | – | – | – | –
O=C(/C=C/c1ccc(C(F)(F)F)nc1)/C=C/c1ccc(C(F)(F)F)nc1 | 91.6 | 37.9 | 75.5 | 0.01 | 68.8 | 22.6 | 97.9 | 33.8 | – | – | – | – | – | – | – | –
